Results on one compound are retold here after patent publication US20250268829A1, “INHALED ANTIBACTERIAL FORMULATIONS FOR TREATING LUNG INFECTIONS” (Board of Regents, The University of Texas System, priority 2022, published 2025).

What all share (type): physicochemical
Data set [1] in a line: In vitro aerosol performance, Next Generation Impactor (NGI). To be noted: for Emitted Dose / Emitted Fraction / GSD / MMAD / RF (<5 μm): 4 kPa; for RF (<5 μm): percent of total dose. As for the experimental part: The in vitro aerosol performance of the milled and unmilled powders was assessed using Next Generation Impactor (NGI) with a low and high resistance DPI (RS01 Monodose DPI (RS01 DPI; Plastiape). About 10 mg of the powder was added to size 3 hydroxypropyl methylcellulose (HPMC) capsules and the analysis was performed for a length of time sufficient to draw 4 L of air through the NGI, as per USP requirements. The pressure drop across the system was equivalent to either 4 kPa or 1 kPa. The flow rates required across the pressure drop to draw 4 L of air through the NGI, as per USP requirements, were 93 L/min for 4 kPa and 47.6 L/min for 1 kPa. The aerosol performance was compared between the low resistance device and the high resistance device. Also, the performance of the Plastiape devices was compared to that of Handihaler, a commercially used DPI. TIG deposited in each stage was dissolved in a buffer containing 0.015 M oxalic acid and 0.015 M sodium phosphate monobasic at pH 7 and quantified using a UV-Visible spectrophotometer (Tecan Systems, Inc., San Jose, CA, USA) at 245 nm. The aerodynamic particle size metrics that were calculated include emitted dose (ED), emitted fraction (EF), the respiratory fraction (RF), fine particle dose (FPD), fine particle fraction (FPF), mass median aerodynamic diameter (MMAD), and geometric standard deviation (GSD). […]

Data set [2] is described as follows: Geometric particle size distribution, HELOS laser diffraction with RODOS dispersion. To be noted: Avg. As for the experimental part:
HELOS laser diffraction instrument (Sympatec Americas, Pennington, NJ) using the RODOS dispersion feature was used to assess the geometric particle size distribution of both the milled and unmilled powders. The particle size distribution was measured at different pressures from 0.5-3 bar to analyze the effect of dispersion pressure on particle deaggregation. Measurements that were between 5% and 25% optical density were averaged to determine particle size distribution.

The nature of data set [3]: Water content by thermogravimetric analysis (TGA). To be noted: baseline. As for the experimental part: The water content of the powders was assessed using thermogravimetric analysis (TGA). About 5 mg of powder was loaded into a 70 μL alumina crucible. The samples were heated from 35-350° C. at a rate of 10° C./min.
(§1) The milled powder was stored for 30 days at 25° C./60% RH and 45° C./75% RH, as specified by the International Council for Harmonization (ICH) intermediate and accelerated stability conditions using sealed amber vials. At the 30-day and 6 month time point, the powder was characterized for its physicochemical properties, stability, and aerosol performance. The results obtained from day 30 and 6 months were compared to baseline measurements to declare storage stability.

Data set [4] in a line: Water sorption by dynamic vapor sorption (DVS). The note with it: baseline. As for the experimental part:
Dynamic vapor sorption (DVS) analysis of the powders was performed using an Automated Water Sorption Analyzer (Surface Measurement Systems, London, UK). Briefly, 5-10 mg of milled and unmilled TIG powder was used as the sample. The samples were allowed to equilibrate under nitrogen until dm/dt<0.002%. Water sorption was analyzed as 10 steps from 0% relative humidity (RH) to 100% RH where step dm/dt was set at 0.075% at 10% increments in RH.
as §1

Data set [5] is described as follows: True density, helium multipycnometer. As for the experimental part:
The true density of the processed powders was measured using a helium multipycnometer (Quantachrome Instruments, Boynton Beach, FL) with a micro-sample cell. The sample cell was filled to at least 75% of the total volume with milled or unmilled tigecycline powder. Using equation (1), the pressure of both the reference cell (P1) and sample cell (P2) was determined, and the true volume of the sample was calculated as follows:
For the micro-sample cell utilized, Vc was calibrated at 11.76156 cm^3 and VR=6.34216 cm^3. The sample weight was divided by the measured true volume to obtain the true density. Measurements were repeated until the standard deviation of ten consecutive true density measurements was less than 0.01 g/mL.

Turning to `CN(C)c1cc(NC(=O)CNC(C)(C)C)c(O)c2c1C[C@H]1C[C@H]3[C@H](N(C)C)C(O)=C(C(N)=O)C(=O)[C@@]3(O)C(O)=C1C2=O` [Unmilled tigecycline, tigecycline], the “Emitted Dose” value in data set [1] (Handihaler) is 7.66 ± 5.11 mg; in data set [1] (LR Plastiape), 8.48 ± 0.25 mg. Moreover, the “Emitted Fraction” value was determined as 64.60 ± 0.23% in data set [1] (Handihaler) and 90.20 ± 0.27% in data set [1] (LR Plastiape). The GSD in data set [1] (Handihaler) was determined as 1.13 ± 0.11; in data set [1] (LR Plastiape), 1.25 ± 0.01. Also, the MMAD in data set [1] (Handihaler) came to 8.27 ± 1.41 μm; in data set [1] (LR Plastiape, listed as Unmilled), 5.73 ± 0.52 μm; in data set [1] (LR Plastiape, listed as unmilled tigecycline), 5.73±0.52 μm. For the same compound, the “RF (<5 μm)” value came to 16.44 ± 2.12% in data set [1] (Handihaler) and 28.59 ± 1.56% in data set [1] (LR Plastiape). Also, the “emitted dose deposited in the capsule, device, throat and early NGI stages” value in data set [1] (pressure drop of 4 kPa) was more than 65%. Besides, the “Fine Particle Dose (FPD)” value in data set [1] (pressure drop of 4 kPa, before storage) was found to be 2.57 ± 0.06 mg. In addition, the “fine particle fraction (FPF)” value in data set [1] (pressure drop of 4 kPa, before storage, particles below 5 μm with respect to emitted dose) is recorded as 31.70±1.83%. Further, the Dv90 amounted to 18.38 μm in data set [2] (dispersing pressure 0.5 bar); 16.29 μm in data set [2] (dispersing pressure 1 bar); 10.79 μm in data set [2] (dispersing pressure 2 bar); 9.49 μm in data set [2] (dispersing pressure 3 bar); 9.48 μm in data set [2] (dispersing pressure 3 bar, listed as unmilled powders). The Water content result in data set [3] is “negligible”. In addition, the hygroscopicity result in data set [4] is “not hygroscopic”. The “True Density” value in data set [5] worked out at 1.282 ± 0.0004 g/mL.
